Common to all, as to assay: relative viability (nuclei count vs DMSO), 5 days (fraction); higher = more cells survive
Compound in the test “Crizotinib + Lapatinib”: C[C@@H](Oc1cc(-c2cnn(C3CCNCC3)c2)cnc1N)c1c(Cl)ccc(F)c1Cl [Crizotinib] + CS(=O)(=O)CCNCc1ccc(-c2ccc3ncnc(Nc4ccc(OCc5cccc(F)c5)c(Cl)c4)c3c2)o1 [Lapatinib] (partner 2 µM)
The essentials: (§1)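 Dosing by pin tool came one day after lung cancer cell lines were seeded in 1536-well plates, using either one drug or a fixed anchor-drug dose plus five library-drug doses (not always all listed) in √10 steps. After 5 days, nuclei were counted on 4× images. Relative viability is treated-well nuclei count divided by vehicle-well nuclei count, and values are medians of duplicate plates.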

Compound in the test “Olaparib + Luminespib”: O=C(c1cc(Cc2n[nH]c(=O)c3ccccc23)ccc1F)N1CCN(C(=O)C2CC2)CC1 [Olaparib] + CCNC(=O)c1noc(-c2cc(C(C)C)c(O)cc2O)c1-c1ccc(CN2CCOCC2)cc1 [Luminespib] (partner 0.01 µM)
The method in brief:
as §1

Compound in the test “Olaparib + Phenformin”: O=C(c1cc(Cc2n[nH]c(=O)c3ccccc23)ccc1F)N1CCN(C(=O)C2CC2)CC1 [Olaparib] + N=C(N)NC(=N)NCCc1ccccc1 [Phenformin] (partner 250 µM)
The method in brief: as §1

Compound in the test “Crizotinib + AZD7762”: C[C@@H](Oc1cc(-c2cnn(C3CCNCC3)c2)cnc1N)c1c(Cl)ccc(F)c1Cl [Crizotinib] + NC(=O)Nc1cc(-c2cccc(F)c2)sc1C(=O)N[C@H]1CCCNC1 [AZD7762] (partner 0.2 µM)
The method in brief:
as §1

Compound in the test “Carfilzomib + Phenformin”: CC(C)C[C@H](NC(=O)[C@H](CCc1ccccc1)NC(=O)CN1CCOCC1)C(=O)N[C@@H](Cc1ccccc1)C(=O)N[C@@H](CC(C)C)C(=O)[C@@]1(C)CO1 [Carfilzomib] + N=C(N)NC(=N)NCCc1ccccc1 [Phenformin] (partner 250 µM)
The method in brief:
as §1

On to NCI-H1793, for which the relative viability with Crizotinib + Lapatinib (first compound 0.01 µM) is 0.68; with Crizotinib + Lapatinib (first compound 0.03162 µM) it was 0.737; with Crizotinib + Lapatinib (first compound 0.1 µM), 0.749; with Crizotinib + Lapatinib (first compound 1 µM), 0.802; in the test with Olaparib + Luminespib (first compound 0.08 µM) it was 0.144; with Olaparib + Luminespib (first compound 0.253 µM) it was 0.225. The relative viability was determined as 0.138 with Olaparib + Luminespib (first compound 2.53 µM); 0.149 with Olaparib + Luminespib (first compound 8 µM); 0.341 in the test with Olaparib + Phenformin (first compound 0.08 µM); 0.348 with Olaparib + Phenformin (first compound 0.253 µM); 0.305 with Olaparib + Phenformin (first compound 2.53 µM); 0.287 with Olaparib + Phenformin (first compound 8 µM). Also, the relative viability was 0.435 with Crizotinib + AZD7762 (first compound 0.03162 µM); 0.41 with Crizotinib + AZD7762 (first compound 0.1 µM); 0.621 with Crizotinib + AZD7762 (first compound 1 µM); 0.404 with Carfilzomib + Phenformin (first compound 0.003162 µM); 0.296 in the test with Carfilzomib + Phenformin (first compound 0.01 µM); 0.407 with Carfilzomib + Phenformin (first compound 0.03162 µM). In the test with Carfilzomib + Phenformin (first compound 0.1 µM), the relative viability came to 0.261.

Values taken from the supplement of paper PMC10307832.
